Test results from patent US7045515B2, “β-lactam compounds process for reproducing the same and serum cholesterol-lowering agents containing the same” (Kotobuki Pharmaceutical Co., Ltd., priority 2001, dated 2006).

melting point [°C]	SMILES
72 to 74	O=C1[C@H](CC[C@H](O)c2ccc(F)cc2)[C@@H](c2ccc(/C=C/C[C@@H]3O[C@H](CO)[C@@H](O)[C@H](O)[C@H]3O)cc2)N1c1ccc(F)cc1 [Compound 47]
97 to 99	O=C(O)c1ccc(N2C(=O)[C@H](CCCc3ccc(F)cc3)[C@H]2c2ccc(C[C@@H]3O[C@H](CO)[C@@H](O)[C@H](O)[C@H]3O)cc2)cc1 [Compound 31, 4-[(4S,3R)-4-(4-{[(2S,5S,3R,4R,6R)-3,4,5-Trihydroxy-6-(hydroxymethyl)perhydro-2H-pyran-2-yl]methyl}phenyl)-3-[3-(4-fluorophenyl)propyl]-2-oxoazetidinyl]benzoic acid]
81 to 83	O=C1[C@H](CC[C@H](O)c2ccc(F)cc2)[C@@H](c2ccc([C@@H]3O[C@H](CO)[C@@H](O)[C@H](O)[C@H]3O)cc2)N1c1ccc(F)cc1 [Compound 35]
73 to 75	COc1ccc(N2C(=O)[C@H](CCCc3ccc(F)cc3)[C@H]2c2ccc(CC3O[C@H](CO)[C@@H](O)[C@H](O)[C@H]3O)cc2)cc1 (relative stereo) [Compound 5, (4S*,3R*)-4-(4-{[(5S,2R,3R,4R,6R)-3,4,5-Trihydroxy-6-(hydroxymethyl)perhydro-2H-pyran-2-yl]methyl}phenyl)-1-(4-methoxyphenyl)-3-[3-(4-fluorophenyl)propyl]azetidine-2-one]
73 to 74	CCOC(=O)C(C)(C)Oc1ccc(N2C(=O)[C@H](CCCc3ccc(F)cc3)[C@H]2c2ccc(C[C@@H]3O[C@H](CO)[C@@H](O)[C@H](O)[C@H]3O)cc2)cc1 (relative stereo) [Compound 18, 2-{4-[(4S*,3R*)-4-{[(5S,2R,3R,4R,6R)-3,4,5-Trihydroxy-6-(hydroxymethyl)perhydro-2H-pyran-2-yl]methyl}phenyl-3-[3-(4-fluorophenyl)propyl]-2-oxoazetidinyl]phenoxy}-2-methylpropionic acid ethyl ester]
66 to 68	O=C1[C@H](CC[C@H](O)c2ccc(F)cc2)[C@@H](c2ccc(CCCCC[C@@H]3O[C@H](CO)[C@@H](O)[C@H](O)[C@H]3O)cc2)N1c1ccc(F)cc1 [Compound 55]
83 to 85	O=C(CC[C@H]1C(=O)N(c2ccc(F)cc2)[C@@H]1c1ccc([C@@H]2O[C@H](CO)[C@@H](O)[C@H](O)[C@H]2O)cc1)c1ccc(F)cc1 [Compound 34]
110 to 112	O=C(O)[C@H]1O[C@@H](CCc2ccc([C@@H]3[C@@H](CC[C@H](O)c4ccc(F)cc4)C(=O)N3c3ccccc3)cc2)[C@H](O)[C@@H](O)[C@@H]1O [Compound 58]
76 to 78	CCOC(=O)C(C)(C)Oc1ccc(N2C(=O)[C@H](CCCc3ccc(C)cc3)[C@H]2c2ccc(C[C@@H]3O[C@H](CO)[C@@H](O)[C@H](O)[C@H]3O)cc2)cc1 (relative stereo) [Compound 20, 2-{4-[(4S*,3R*)-4-{[(5S,2R,3R,4R,6R)-3,4,5-Trihydroxy-6-(hydroxymethyl)perhydro-2H-pyran-2-yl]methyl}phenyl-3-[3-(4-methylphenyl)propyl]-2-oxoazetidinyl]phenoxy}-2-methylpropionic acid ethyl ester]
81 to 83	O=C1[C@H](CC[C@H](O)c2ccc(F)cc2)[C@@H](c2ccc(CCC[C@@H]3O[C@H](CO)[C@@H](O)[C@H](O)[C@H]3O)cc2)N1c1ccc(F)cc1 [Compound 48]
104 to 106	O=C(CC[C@H]1C(=O)N(c2ccccc2)[C@@H]1c1ccc(C[C@@H]2O[C@H](CO)[C@@H](O)[C@H](O)[C@H]2O)cc1)c1ccc(F)cc1 [Compound 27, (4S,3R)-4-(4-{[(2S,5S,3R,4R,6R)-3,4,5-Trihydroxy-6-(hydroxymethyl)perhydro-2H-pyran-2-yl]methyl}phenyl)-1-phenyl-3-[3-(4-fluorophenyl)-3-oxopropyl]azetidine-2-one]
76 to 78	O=C1[C@H](CCCc2ccc(F)cc2)[C@@H](c2ccc(C[C@@H]3O[C@H](CO)[C@@H](O)[C@H](O)[C@H]3O)cc2)N1c1ccc(Cl)cc1 (relative stereo) [Compound 4, (4S*,3R*)-4-(4-{[(2S,5S,3R,4R,6R)-3,4,5-Trihydroxy-6-(hydroxymethyl)perhydro-2H-pyran-2-yl]methyl}phenyl)-1-(4-chlorophenyl)-3-[3-(4-fluorophenyl)propyl]azetidine-2-one]
170 to 172	CC(C)(Oc1ccc(N2C(=O)[C@H](CCCc3ccc(F)cc3)[C@H]2c2ccc(C[C@@H]3O[C@H](CO)[C@@H](O)[C@H](O)[C@H]3O)cc2)cc1)C(=O)O (relative stereo) [Compound 19, 2-{4-[(4S*,3R*)-4-{[(5S,2R,3R,4R,6R)-3,4,5-Trihydroxy-6-(hydroxymethyl)perhydro-2H-pyran-2-yl]methyl}phenyl-3-[3-(4-fluorophenyl)propyl]-2-oxoazetidinyl]phenoxy}-2-methylpropionic acid]
79 to 81	Cc1ccc(N2C(=O)[C@H](CC[C@H](O)c3ccc(F)cc3)[C@H]2c2ccc([C@@H]3O[C@H](CO)[C@@H](O)[C@H](O)[C@H]3O)cc2)cc1 [Compound 36]
81 to 83	O=C1[C@H](CC[C@H](O)c2ccc(F)cc2)[C@@H](c2ccc(CCCC[C@@H]3O[C@H](CO)[C@@H](O)[C@H](O)[C@H]3O)cc2)N1c1ccc(F)cc1 [Compound 53]
73 to 75	O=C1[C@H](CCCc2ccc(F)cc2)[C@@H](c2ccc(OCC3O[C@H](CO)[C@@H](O)[C@H](O)[C@H]3O)cc2)N1Cc1ccccc1 (relative stereo) [Compound 16, (4S*,3R*)-4-(4-{[(4S,5S,2R,3R,6R)-3,4,5-Trihydroxy-6-(hydroxymethyl)perhydro-2H-pyran-2-yl]methoxy}phenyl)-1-phenylmethyl-3-[3-(4-fluorophenyl)propyl]azetidine-2-one]
78 to 80	O=C1[C@H](CCCc2ccc(F)cc2)[C@H](c2ccc(CC3O[C@H](CO)[C@@H](O)[C@H](O)[C@H]3O)cc2)N1c1ccc(F)cc1 (relative stereo) [Compound 40, (4R*,3R*)-4-(4-{[(5S,2R,3R,4R,6R)-3,4,5-Trihydroxy-6-(hydroxymethyl)perhydro-2H-pyran-2-yl]methyl}phenyl)-3-[3-(4-fluorophenyl)propyl]-1-(4-fluorophenyl)azetidine-2-one]
69 to 71	O=C1[C@H](CC[C@H](O)c2ccc(F)cc2)[C@@H](c2ccc(/C=C/CCC[C@@H]3O[C@H](CO)[C@@H](O)[C@H](O)[C@H]3O)cc2)N1c1ccc(F)cc1 [Compound 54]
65 to 67	O=C1[C@H](CCOc2ccc(F)cc2)[C@@H](c2ccc(CC3O[C@H](CO)[C@@H](O)[C@H](O)[C@H]3O)cc2)N1c1ccc(F)cc1 (relative stereo) [Compound 12, (4S*,3R*)-4-(4-{[(5S,2R,3R,4R,6R)-3,4,5-Trihydroxy-6-(hydroxymethyl)perhydro-2H-pyran-2-yl]methyl}phenyl)-1-(4-fluorophenyl)-3-[2-(4-fluorophenoxy)ethyl]azetidine-2-one]
110 to 112	O=C1[C@H](CC[C@H](O)c2ccccc2)[C@@H](c2ccc(C[C@@H]3O[C@H](CO)[C@@H](O)[C@H](O)[C@H]3O)cc2)N1c1ccccc1 [Compound 41, 3-((3S)-3-Hydroxy-3-phenylpropyl)(4S,3R)-4-(4-{[(2S,5S,3R,4R,6R)-3,4,5-trihydroxy-6-(hydroxymethyl)perhydro-2H-pyran-2-yl]methyl}phenyl)-1-phenylazetidine-2-one]
84 to 86	O=C1[C@H](CCCc2ccc(F)cc2)[C@@H](c2ccc(CC3O[C@H](CO)[C@@H](O)[C@H](O)[C@H]3O)cc2)N1c1ccccc1 (relative stereo) [Compound 9, (4S*,3R*)-4-(4-{[(5S,2R,3R,4R,6R)-3,4,5-Trihydroxy-6-(hydroxymethyl)perhydro-2H-pyran-2-yl]methyl}phenyl)-1-phenyl-3-[3-(4-fluorophenyl)propyl]azetidine-2-one]

SMILES	melting point [°C]
CC(=O)OC[C@H]1O[C@@H](Cc2ccc([C@@H]3[C@@H](CCCc4ccc(F)cc4)C(=O)N3c3ccc(C)cc3)cc2)[C@H](OC(C)=O)[C@@H](OC(C)=O)[C@@H]1OC(C)=O (relative stereo) [Compound 8, (3S,2R,4R,5R,6R)-2-[(4-{(4S*,3R*)-1-(4-Methylphenyl)-3-[3-(4-fluorophenyl)propyl]-2-oxoazetidine-4-yl}phenyl)methyl]-4,5-diacetyloxy-6-(acetoxymethyl)perhydro-2H-pyran-3-ylacetate]	56 to 58
CC(=O)OC[C@H]1O[C@@H](Cc2ccc([C@@H]3[C@@H](CCCc4ccc(F)cc4)C(=O)N3c3ccc(F)cc3)cc2)[C@H](OC(C)=O)[C@@H](OC(C)=O)[C@@H]1OC(C)=O (relative stereo) [Compound 3, (3S,2R,4R,5R,6R)-2-[(4-{(4S*,3R*)-1-(4-Fluorophenyl)-3-[3-(4-fluorophenyl)propyl]-2-oxoazetidine-4-yl}phenyl)methyl]-4,5-diacetyloxy-6-(acetoxymethyl)perhydro-2H-pyran-3-ylacetate]	56 to 58
COc1ccc(N2C(=O)[C@H](CCCc3ccc(F)cc3)[C@H]2c2ccc(C[C@@H]3O[C@H](COC(C)=O)[C@@H](OC(C)=O)[C@H](OC(C)=O)[C@H]3OC(C)=O)cc2)cc1 (relative stereo) [Compound 6, (3S,2R,4R,5R,6R)-2-[(4-{(4S*,3R*)-1-(4-Methoxyphenyl)-3-[3-(4-fluorophenyl)propyl]-2-oxoazetidine-4-yl}phenyl)methyl]-4,5-diacetyloxy-6-(acetoxymethyl)perhydro-2H-pyran-3-ylacetate]	60 to 62
CC(=O)OC[C@H]1O[C@@H](Cc2ccc([C@@H]3[C@@H](CCCc4ccc(F)cc4)C(=O)N3c3ccccc3)cc2)[C@H](OC(C)=O)[C@@H](OC(C)=O)[C@@H]1OC(C)=O (relative stereo) [Compound 10, (3S,2R,4R,5R,6R)-2-[(4-{(4S*,3R*)-1-phenyl-3-[3-(4-fluorophenyl)propyl]-2-oxoazetidine-4-yl}phenyl)methyl]4,5-diacetyloxy-6-(acetoxymethyl)perhydro-2H-pyran-3-ylacetate]	60 to 61
